ChEMBL document CHEMBL4196088, “Induction of cell killing and autophagy by amphiphilic pyrrolidine derivatives on human pancreatic cancer cells” (Eur J Med Chem, 2018)
Calls of active or inactive are those of the source. The rule behind the calls is not given here.

What was measured:
BXPC-3 [1] = test: Growth inhibition of human BxPC3 cells after 72 hrs by XTT assay; assay type: functional, cell-based; settings: BXPC-3, 72 h
PANC-1 [2] = test: Growth inhibition of human PANC1 cells after 72 hrs by XTT assay; assay type: functional, cell-based; settings: PANC-1, 72 h
PANC-1 [3] = test: Induction of apoptosis in human PANC1 cells assessed as accumulation at sub-G0/G1 phase at 20 uM after 24 hrs by propidium iodide staining based flow cytometry (reference value: 0.6 to 0.7%); assay type: functional
PANC-1 [4] = test: Induction of apoptosis in human PANC1 cells assessed as accumulation at sub-G0/G1 phase at 20 uM after 48 hrs by propidium iodide staining based flow cytometry (reference value: 0.2 to 2.9%); assay type: functional
PANC-1 [5] = test: Induction of apoptosis in human PANC1 cells assessed as accumulation at sub-G0/G1 phase at 20 uM after 72 hrs by propidium iodide staining based flow cytometry (reference value: 1.6 to 3.2%); assay type: functional
PANC-1 [6] = test: Induction of apoptosis in human PANC1 cells assessed as accumulation at sub-G0/G1 phase at 10 uM after 24 hrs by propidium iodide staining based flow cytometry (reference value: 0.6 to 0.7%); assay type: functional
PANC-1 [7] = test: Induction of apoptosis in human PANC1 cells assessed as accumulation at sub-G0/G1 phase at 10 uM after 48 hrs by propidium iodide staining based flow cytometry (reference value: 0.2 to 2.9%); assay type: functional
PANC-1 [8] = test: Induction of apoptosis in human PANC1 cells assessed as accumulation at sub-G0/G1 phase at 10 uM after 72 hrs by propidium iodide staining based flow cytometry (reference value: 1.6 to 3.2%); assay type: functional
[9] = Induction of apoptosis in HPNE cells at 5 to 40 uM after 24 to 72 hrs by Annexin V/7-AAD staining based flow cytometry; assay type: cell-based; settings: human
Fibroblast = test: Induction of apoptosis in human primary fibroblasts at 5 to 40 uM after 24 to 72 hrs by Annexin V/7-AAD staining based flow cytometry; assay type: cell-based
PK9 [10] = test: Induction of apoptosis in human PK9 cells at 5 to 40 uM after 24 to 72 hrs by Annexin V/7-AAD staining based flow cytometry; assay type: functional, cell-based
MIA PaCa-2 [11] = test: Antiproliferative activity against human MIAPaCa2 cells; assay type: functional, cell-based
PK9 [12] = test: Antiproliferative activity against human PK9 cells; assay type: functional, cell-based
SK-BR-3 = test: Growth inhibition of human SKBR3 cells after 72 hrs; assay type: functional, cell-based; settings: SK-BR-3, 72 h
MIA PaCa-2 [13] = test: Growth inhibition of human MIAPaCa2 cells after 72 hrs by MTT assay; assay type: functional, cell-based; settings: MIA PaCa-2, 72 h
PK9 [14] = test: Growth inhibition of human PK9 cells after 72 hrs by MTT assay; assay type: functional, cell-based; settings: PK9, 72 h
BXPC-3 [15] = test: Induction of apoptosis in human BxPC3 cells assessed as accumulation at sub-G0/G1 phase at 20 uM after 24 hrs by propidium iodide staining based flow cytometry (reference value: 2.3%); assay type: functional
BXPC-3 [16] = test: Induction of apoptosis in human BxPC3 cells assessed as accumulation at sub-G0/G1 phase at 20 uM after 48 hrs by propidium iodide staining based flow cytometry (reference value: 2.8%); assay type: functional
BXPC-3 [17] = test: Induction of apoptosis in human BxPC3 cells assessed as accumulation at sub-G0/G1 phase at 20 uM after 72 hrs by propidium iodide staining based flow cytometry (reference value: 3.4%); assay type: functional
BXPC-3 [18] = test: Induction of apoptosis in human BxPC3 cells assessed as accumulation at sub-G0/G1 phase harboring pSFFV-Bcl-XL at 20 uM after 24 hrs by propidium iodide staining based flow cytometry (reference value: 1.2%); assay type: functional
BXPC-3 [19] = test: Induction of apoptosis in human BxPC3 cells assessed as accumulation at sub-G0/G1 phase harboring pSFFV-Bcl-XL at 20 uM after 48 hrs by propidium iodide staining based flow cytometry (reference value: 1.3%); assay type: functional
BXPC-3 [20] = test: Induction of apoptosis in human BxPC3 cells assessed as accumulation at sub-G0/G1 phase harboring pSFFV-Bcl-XL at 20 uM after 72 hrs by propidium iodide staining based flow cytometry (reference value: 1.3%); assay type: functional
PK9 [21] = test: Induction of apoptosis in human PK9 cells assessed as accumulation at sub-G0/G1 phase at 20 uM after 24 hrs by propidium iodide staining based flow cytometry (reference value: 2.2%); assay type: functional
PK9 [22] = test: Induction of apoptosis in human PK9 cells assessed as accumulation at sub-G0/G1 phase at 20 uM after 48 hrs by propidium iodide staining based flow cytometry (reference value: 3.8%); assay type: functional
PK9 [23] = test: Induction of apoptosis in human PK9 cells assessed as accumulation at sub-G0/G1 phase at 20 uM after 72 hrs by propidium iodide staining based flow cytometry (reference value: 4%); assay type: functional
[24] = Induction of apoptosis in HPNE cells assessed as accumulation at sub-G0/G1 phase at 20 uM after 24 hrs by propidium iodide staining based flow cytometry (reference value: 0.6%); assay type: cell-based; settings: human
[25] = Induction of apoptosis in HPNE cells assessed as accumulation at sub-G0/G1 phase at 20 uM after 48 hrs by propidium iodide staining based flow cytometry (reference value: 0.7%); assay type: cell-based; settings: human
[26] = Induction of apoptosis in HPNE cells assessed as accumulation at sub-G0/G1 phase at 20 uM after 72 hrs by propidium iodide staining based flow cytometry (reference value: 6.6%); assay type: cell-based; settings: human
BXPC-3 [27] = test: Induction of apoptosis in human BxPC3 cells assessed as accumulation at sub-G0/G1 phase at 10 uM after 24 hrs by propidium iodide staining based flow cytometry (reference value: 1.8%); assay type: functional
BXPC-3 [28] = test: Induction of apoptosis in human BxPC3 cells assessed as accumulation at sub-G0/G1 phase at 10 uM after 48 hrs by propidium iodide staining based flow cytometry (reference value: 2.8%); assay type: functional
BXPC-3 [29] = test: Induction of apoptosis in human BxPC3 cells assessed as accumulation at sub-G0/G1 phase at 10 uM after 72 hrs by propidium iodide staining based flow cytometry (reference value: 3.4%); assay type: functional
BXPC-3 [30] = test: Induction of apoptosis in human BxPC3 cells harboring pSFFV-Bcl-XL assessed as accumulation at sub-G0/G1 phase at 10 uM after 24 hrs by propidium iodide staining based flow cytometry (reference value: 1.5%); assay type: functional
BXPC-3 [31] = test: Induction of apoptosis in human BxPC3 cells harboring pSFFV-Bcl-XL assessed as accumulation at sub-G0/G1 phase at 10 uM after 48 hrs by propidium iodide staining based flow cytometry (reference value: 1.9%); assay type: functional
BXPC-3 [32] = test: Induction of apoptosis in human BxPC3 cells harboring pSFFV-Bcl-XL assessed as accumulation at sub-G0/G1 phase at 10 uM after 72 hrs by propidium iodide staining based flow cytometry (reference value: 2%); assay type: functional
PK9 [33] = test: Induction of apoptosis in human PK9 cells assessed as accumulation at sub-G0/G1 phase at 10 uM after 24 hrs by propidium iodide staining based flow cytometry (reference value: 2.2%); assay type: functional
PK9 [34] = test: Induction of apoptosis in human PK9 cells assessed as accumulation at sub-G0/G1 phase at 10 uM after 48 hrs by propidium iodide staining based flow cytometry (reference value: 3.8%); assay type: functional
PK9 [35] = test: Induction of apoptosis in human PK9 cells assessed as accumulation at sub-G0/G1 phase at 10 uM after 72 hrs by propidium iodide staining based flow cytometry (reference value: 4%); assay type: functional
[36] = Induction of apoptosis in HPNE cells assessed as accumulation at sub-G0/G1 phase at 10 uM after 24 hrs by propidium iodide staining based flow cytometry (reference value: 0.6%); assay type: cell-based; settings: human
[37] = Induction of apoptosis in HPNE cells assessed as accumulation at sub-G0/G1 phase at 10 uM after 48 hrs by propidium iodide staining based flow cytometry (reference value: 0.7%); assay type: cell-based; settings: human
[38] = Induction of apoptosis in HPNE cells assessed as accumulation at sub-G0/G1 phase at 10 uM after 72 hrs by propidium iodide staining based flow cytometry (reference value: 6.6%); assay type: cell-based; settings: human
NCI-H460 = test: Growth inhibition of human NCI-H460 cells after 72 hrs; assay type: functional, cell-based; settings: NCI-H460, 72 h
ACHN = test: Growth inhibition of human ACHN cells after 72 hrs; assay type: functional, cell-based
HeLa = test: Growth inhibition of human HeLa cells after 72 hrs; assay type: functional, cell-based
Jurkat = test: Growth inhibition of human Jurkat cells after 72 hrs; assay type: functional, cell-based

## Cl.NCC(=O)N1CCC[C@H]1COCCCCCCCCC/C=C/c1ccc(-c2ccccc2)cc1
BXPC-3 [1]
  IC50: 7 µM
PANC-1 [2]
  IC50: 6.3 µM
PANC-1 [3]
  Activity: 1.6%
PANC-1 [4]
  Activity: 13.3%
PANC-1 [5]
  Activity: 30.5%
PANC-1 [6]
  Activity: 2%
PANC-1 [7]
  Activity: 16.6%
PANC-1 [8]
  Activity: 35.8%
[9]
  Activity: Toxic
Fibroblast
  Activity: Toxic
PK9 [10]
  Activity: Active

## CCCCCCCCCCCCc1cn(CC[C@H]2NC[C@@H](O)[C@H]2O)nn1
MIA PaCa-2 [11]
  IC50: 14 to 45 µM
PK9 [12]
  IC50: 14 to 45 µM

## CCCCCC/C=C/CCCCCCCCOC[C@H]1NC[C@H](O)[C@@H]1O
SK-BR-3
  IC50: 10 µM
BXPC-3 [1]
  IC50: > 100 µM
PANC-1 [2]
  IC50: 80 µM
MIA PaCa-2 [13]
  IC50: > 100 µM
PK9 [14]
  IC50: > 100 µM
BXPC-3 [15]
  Activity: 9.5%
BXPC-3 [16]
  Activity: 19.6%
BXPC-3 [17]
  Activity: 21.5%
BXPC-3 [18]
  Activity: 4.9%
BXPC-3 [19]
  Activity: 5%
BXPC-3 [20]
  Activity: 3.8%
PANC-1 [3]
  Activity: 7.9%
PANC-1 [4]
  Activity: 23.4%
PANC-1 [5]
  Activity: 33.7%
PK9 [21]
  Activity: 2.2%
PK9 [22]
  Activity: 4.3%
PK9 [23]
  Activity: 5.7%
[24]
  Activity: 46.9%
[25]
  Activity: 65.7%
[26]
  Activity: 70.3%
PANC-1 [6]
  Activity: 5.7%
PANC-1 [7]
  Activity: 9.1%
PANC-1 [8]
  Activity: 6.4%
BXPC-3 [27]
  Activity: 5.3%
BXPC-3 [28]
  Activity: 7.3%
BXPC-3 [29]
  Activity: 7.8%
BXPC-3 [30]
  Activity: 4.3%
BXPC-3 [31]
  Activity: 1.9%
BXPC-3 [32]
  Activity: 3.8%
PK9 [33]
  Activity: 3.4%
PK9 [34]
  Activity: 3.8%
PK9 [35]
  Activity: 2.7%
[36]
  Activity: 3.4%
[37]
  Activity: 2%
[38]
  Activity: 2.5%

## CCCCCCCC/C=C\CCCCCCCCOC[C@@H]1CCCN1C(=O)CN.Cl
BXPC-3 [1]
  IC50: 5.3 µM
PANC-1 [2]
  IC50: 7.7 µM
PANC-1 [3]
  Activity: 2.2%
PANC-1 [4]
  Activity: 7.9%
PANC-1 [5]
  Activity: 50.3%
PANC-1 [6]
  Activity: 2.4%
PANC-1 [7]
  Activity: 13.7%
PANC-1 [8]
  Activity: 52.9%
[9]
  Activity: Toxic
Fibroblast
  Activity: Toxic
PK9 [10]
  Activity: Active

## CCCCCCCCCCCCc1cn(C[C@H]2NC[C@H](O)[C@@H]2O)nn1
MIA PaCa-2 [11]
  IC50: 14 to 45 µM
PK9 [12]
  IC50: 14 to 45 µM

## CCCCCCCCCCCCc1cn(C[C@@H]2N[C@@H](C)[C@@H](O)[C@H]2O)nn1
MIA PaCa-2 [11]
  IC50: 14 to 45 µM
PK9 [12]
  IC50: 14 to 45 µM

## Cl.NCC(=O)N1CCC[C@H]1COCCCCCC/C=C/c1ccc(-c2ccccc2)cc1
BXPC-3 [1]
  IC50: 6 µM
PANC-1 [2]
  IC50: 5.7 µM
PANC-1 [3]
  Activity: 1.5%
PANC-1 [4]
  Activity: 6.3%
PANC-1 [5]
  Activity: 24.7%
PANC-1 [6]
  Activity: 0.9%
PANC-1 [7]
  Activity: 6.1%
PANC-1 [8]
  Activity: 9.5%
[9]
  Activity: Toxic
Fibroblast
  Activity: Toxic
PK9 [10]
  Activity: Active

## CCCCCCCC/C=C\CCCCCCCCOC[C@H]1NC[C@H](O)[C@@H]1O
NCI-H460
  IC50: 9 µM
ACHN
  IC50: 3 µM
HeLa
  IC50: 8 µM
Jurkat
  IC50: 7 µM
